According to US20160287710A1 (UNIVERSITY OF UTAH RESEARCH FOUNDATION, priority 2013, published 2016):
In brackets after ≈: the same amount, converted by molar mass.

Assay: Solubility of progesterone in glycol chitin solutions (reverse-phase HPLC)
Assay type: physicochemical
Conditions: aqueous with cosolvent or surfactant or cyclodextrin
Method: A mixture of methanol/water (80:20; v/v) was used, as the mobile phase at a flow rate of 1 mL per minute. […] FIG. 1.

solubility at 24 h (5 wt % glycol chitin solution, 4 °C, thermodynamic from solid): 148 ± 13.8 µg/mL (≈ 472 µM)
solubility (in a mixture of PEG-400/water (50:50 v/v)): ~200 µg/mL (≈ 636 µM)
Compound: CC(=O)[C@H]1CC[C@H]2[C@@H]3CCC4=CC(=O)CC[C@]4(C)[C@H]3CC[C@]12C [Progesterone]
